PubChem BioAssay (NCI)
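Grown in 96-well plates, cells were treated for 48 hours with each compound at five concentrations. Insufficient inhibition: endpoint recorded as highest concentration tested. Definition used: TGI = concentration required for complete inhibition of growth.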

Columns and labels:
Test in all cases: NCI-60 cell line screen, 48 h
HCT-116 colon = tested on: HCT-116 colon
A498 renal = tested on: A498 renal
ACHN renal = tested on: ACHN renal
UACC-257 melanoma = tested on: UACC-257 melanoma
NCI-H460 lung = tested on: NCI-H460 lung
SK-OV-3 ovarian = tested on: SK-OV-3 ovarian
UACC-62 melanoma = tested on: UACC-62 melanoma
M19-MEL melanoma = tested on: M19-MEL melanoma
DMS 114 small cell lung = tested on: DMS 114 small cell lung
EKVX NSCLC = tested on: EKVX NSCLC
A549 NSCLC = tested on: A549 NSCLC
SNB-78 CNS = tested on: SNB-78 CNS
HOP-92 NSCLC = tested on: HOP-92 NSCLC
OVCAR-8 ovarian = tested on: OVCAR-8 ovarian
SF-295 CNS = tested on: SF-295 CNS
UO-31 renal = tested on: UO-31 renal
RXF 393 renal = tested on: RXF 393 renal
HL-60(TB) leukemia = tested on: HL-60(TB) leukemia
SK-MEL-28 melanoma = tested on: SK-MEL-28 melanoma
NCI-H23 lung = tested on: NCI-H23 lung
HOP-62 NSCLC = tested on: HOP-62 NSCLC
OVCAR-5 ovarian = tested on: OVCAR-5 ovarian
M14 melanoma = tested on: M14 melanoma
SR leukemia = tested on: SR leukemia
SNB-19 CNS = tested on: SNB-19 CNS
IGROV1 ovarian = tested on: IGROV1 ovarian
U251 CNS = tested on: U251 CNS
NCI-H226 lung = tested on: NCI-H226 lung
KM12 colon = tested on: KM12 colon
HT29 colon = tested on: HT29 colon
TK-10 renal = tested on: TK-10 renal
XF 498 CNS = tested on: XF 498 CNS
LXFL 529 NSCLC = tested on: LXFL 529 NSCLC
LOX IMVI melanoma = tested on: LOX IMVI melanoma
CCRF-CEM leukemia = tested on: CCRF-CEM leukemia
COLO 205 colon = tested on: COLO 205 colon
RPMI-8226 leukemia = tested on: RPMI-8226 leukemia
OVCAR-4 ovarian = tested on: OVCAR-4 ovarian
SW-620 colon = tested on: SW-620 colon
SF-539 CNS = tested on: SF-539 CNS
HOP-18 NSCLC = tested on: HOP-18 NSCLC
DMS 273 small cell lung = tested on: DMS 273 small cell lung
MALME-3M melanoma = tested on: MALME-3M melanoma
SK-MEL-2 melanoma = tested on: SK-MEL-2 melanoma
SF-268 CNS = tested on: SF-268 CNS
SN12C renal = tested on: SN12C renal
786-0 renal = tested on: 786-0 renal
MOLT-4 leukemia = tested on: MOLT-4 leukemia
OVCAR-3 ovarian = tested on: OVCAR-3 ovarian
DLD-1 colon = tested on: DLD-1 colon
NCI-H522 lung = tested on: NCI-H522 lung
KM20L2 colon = tested on: KM20L2 colon
K-562 leukemia = tested on: K-562 leukemia
HCT-15 colon = tested on: HCT-15 colon

COc1cc(O)c2c(c1C)C(C)(O)c1c(C)coc1C2=O (stereo not drawn)
TGI (HCT-116 colon): > 100 µM | TGI (A498 renal): > 100 µM | TGI (ACHN renal): > 100 µM | TGI (UACC-257 melanoma): > 100 µM | TGI (NCI-H460 lung): > 100 µM | TGI (SK-OV-3 ovarian): > 100 µM | TGI (UACC-62 melanoma): > 100 µM | TGI (M19-MEL melanoma): > 100 µM | TGI (DMS 114 small cell lung): > 100 µM | TGI (EKVX NSCLC): > 100 µM | TGI (A549 NSCLC): > 100 µM | TGI (SNB-78 CNS): > 100 µM | TGI (HOP-92 NSCLC): > 100 µM | TGI (OVCAR-8 ovarian): > 100 µM | TGI (SF-295 CNS): > 100 µM | TGI (UO-31 renal): > 100 µM | TGI (RXF 393 renal): > 100 µM | TGI (HL-60(TB) leukemia): > 100 µM | TGI (SK-MEL-28 melanoma): > 100 µM | TGI (NCI-H23 lung): > 100 µM | TGI (HOP-62 NSCLC): > 100 µM | TGI (OVCAR-5 ovarian): > 100 µM | TGI (M14 melanoma): > 100 µM | TGI (SR leukemia): > 100 µM | TGI (SNB-19 CNS): > 100 µM | TGI (IGROV1 ovarian): > 100 µM | TGI (U251 CNS): > 100 µM | TGI (NCI-H226 lung): > 100 µM | TGI (KM12 colon): > 100 µM | TGI (HT29 colon): > 100 µM | TGI (TK-10 renal): > 100 µM

Oc1ccc(I)c2cccnc12
TGI (HCT-116 colon): > 100 µM | TGI (XF 498 CNS): > 100 µM | TGI (A498 renal): > 100 µM | TGI (ACHN renal): > 100 µM | TGI (UACC-257 melanoma): 73.8 µM | TGI (NCI-H460 lung): 20.2 µM | TGI (SK-OV-3 ovarian): 49.5 µM | TGI (LXFL 529 NSCLC): > 100 µM | TGI (LOX IMVI melanoma): 46.3 µM | TGI (CCRF-CEM leukemia): 9.68 µM | TGI (M19-MEL melanoma): 76.8 µM | TGI (COLO 205 colon): 79 µM | TGI (EKVX NSCLC): 65.2 µM | TGI (RPMI-8226 leukemia): 62.9 µM | TGI (OVCAR-4 ovarian): > 100 µM | TGI (SW-620 colon): > 100 µM | TGI (A549 NSCLC): > 100 µM | TGI (SNB-78 CNS): > 100 µM | TGI (HOP-92 NSCLC): > 100 µM | TGI (SF-539 CNS): > 100 µM | TGI (HOP-18 NSCLC): 47.7 µM | TGI (OVCAR-8 ovarian): > 100 µM | TGI (SF-295 CNS): 30.1 µM | TGI (DMS 273 small cell lung): 14.1 µM | TGI (UO-31 renal): 32.5 µM | TGI (MALME-3M melanoma): 61.8 µM | TGI (SK-MEL-2 melanoma): 71.4 µM | TGI (RXF 393 renal): 33.1 µM | TGI (HL-60(TB) leukemia): 5.76 µM | TGI (SF-268 CNS): 72.1 µM | TGI (SK-MEL-28 melanoma): > 100 µM | TGI (NCI-H23 lung): 55.2 µM | TGI (SN12C renal): > 100 µM | TGI (786-0 renal): > 100 µM | TGI (MOLT-4 leukemia): > 100 µM | TGI (HOP-62 NSCLC): > 100 µM | TGI (OVCAR-5 ovarian): > 100 µM | TGI (OVCAR-3 ovarian): > 100 µM | TGI (DLD-1 colon): > 100 µM | TGI (NCI-H522 lung): 7.2 µM | TGI (M14 melanoma): 25.4 µM | TGI (SR leukemia): 14.8 µM | TGI (SNB-19 CNS): > 100 µM | TGI (KM20L2 colon): > 100 µM | TGI (IGROV1 ovarian): 39.3 µM | TGI (K-562 leukemia): 23.8 µM | TGI (U251 CNS): > 100 µM | TGI (NCI-H226 lung): 41.8 µM | TGI (KM12 colon): > 100 µM | TGI (HCT-15 colon): > 100 µM | TGI (HT29 colon): > 100 µM | TGI (TK-10 renal): > 100 µM
